What was measured:
human 11β-HSD1 = human 11β-HSD1 (Homo sapiens (Human), UniProt P28845); test: HTRF cortisol assay in 11β-HSD1 overexpressing CHO cells; assay type: cell-based; conditions: human 11β-HSD1 overexpressing CHO cells, 160 nM cortisone, 3 hr at 37° C., read-out: IC50(nM) to 11β-HSD-1
Protocol: The full-length cDNA molecule coding for human or mouse 11β-HSD1 was inserted into pcDNA (Promega) as mammalian expression vectors and transformed into CHO cells for 5 hr using Lipofectamine plus (Invitrogen) in accordance with manufacturer's manual, followed by stabilization for 48 hr. The CHO cells were incubated with 0.8 μg/ml puromycin (Sigma) once every three days for two weeks to obtain human or mouse 11β-HSD1 overexpressing cells. The cells were grown and frozen, and thawed for enzyme inhibition tests.
The in vitro inhibitory activities of the novel compounds to human 11β-HSD1 were evaluated in accordance with homogenous time-resolved fluorescence (HTRF).
The human or mouse 11β-HSD1 overexpressing cells were subcultured at the number of 2.5×10^4 cells in 96-well plate and stabilized for 24 hr. […] Then, samples of the medium (10 μl) were transferred to 384-well plate and the amounts of cortisol produced were measured using a cortisol kit (Cisbio international) in accordance with manufacturer's instruction. […] Delta F value=(Ratio of compounds−Ratio of negative)/Ratio of negative×100 2. Normalized value=Delta F value of compounds−Delta F value of control 3. % inhibition=Normalized value of compounds/Normalized value of background×100 4.

human 11β-HSD-2 = human 11β-HSD-2 (Homo sapiens (Human), UniProt P80365); test: HTRF analysis of inhibition of 11β-HSD-2; assay type: cell-based; conditions: human 11β-HSD-2, HTRF
human 11β-HSD-2, sequence (P80365 whole entry): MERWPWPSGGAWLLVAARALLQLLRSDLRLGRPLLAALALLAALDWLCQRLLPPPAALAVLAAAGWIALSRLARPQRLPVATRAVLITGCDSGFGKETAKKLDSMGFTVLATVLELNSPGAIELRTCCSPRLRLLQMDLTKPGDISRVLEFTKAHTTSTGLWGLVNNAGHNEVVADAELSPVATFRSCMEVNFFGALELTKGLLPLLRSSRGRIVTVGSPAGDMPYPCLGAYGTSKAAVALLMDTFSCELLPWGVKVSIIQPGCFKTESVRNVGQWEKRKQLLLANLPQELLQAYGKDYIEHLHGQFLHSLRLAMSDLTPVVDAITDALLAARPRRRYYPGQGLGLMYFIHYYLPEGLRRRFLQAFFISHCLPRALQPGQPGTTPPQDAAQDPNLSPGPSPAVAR

human 11β-HSD1, sequence (P28845 whole entry): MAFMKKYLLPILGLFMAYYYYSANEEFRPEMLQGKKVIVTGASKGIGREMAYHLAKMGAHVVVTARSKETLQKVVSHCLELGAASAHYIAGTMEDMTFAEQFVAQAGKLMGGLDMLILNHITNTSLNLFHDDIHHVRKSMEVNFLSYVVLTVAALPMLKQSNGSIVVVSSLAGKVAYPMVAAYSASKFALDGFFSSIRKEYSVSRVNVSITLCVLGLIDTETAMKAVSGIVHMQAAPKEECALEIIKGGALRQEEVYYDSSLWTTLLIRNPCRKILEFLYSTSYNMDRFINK

| SMILES | IC50 (human 11β-HSD1) [nM] | IC50 (human 11β-HSD-2) [nM] |
| --- | --- | --- |
| O=C(CN1CCCN(c2ccccc2)S1(=O)=O)NC1C2CC3CC(C2)CC1C3 (centres unmarked) [Compound 2, N-(adamantan-2-yl)-(1,1-dioxido-6-phenyl-1,2,6-thiadiazinan-2-yl)acetamide] | 12 | > 10000 |
| CC(C)(C)OC(=O)N1CCCN(CC(=O)NC2C3CC4CC(C3)CC2C4)S1(=O)=O (centres unmarked) [Compound 3, tert-butyl 6-(2-(adamantan-2-ylamino)-2-oxoethyl)-1,2,6-thiadiazinan-2-carboxylate 1,1-dioxide] | 363 | > 10000 |
| O=C(CN1CCCN(Cc2ccccc2)S1(=O)=O)NC1C2CC3CC(C2)CC1C3 (centres unmarked) [Compound 5, N-(adamantan-2-yl)-2-(6-benzyl-1,1-dioxido-1,2,6-thiadiazinan-2-yl)acetamide] | 360 | > 10000 |
| O=C(CN1CCCN(Cc2ccccc2F)S1(=O)=O)NC1C2CC3CC(C2)CC1C3 (centres unmarked) [Compound 14, N-(adamantan-2-yl)-2-(6-(2-fluorobenzyl)-1,1-dioxido-1,2,6-thiadiazinan-2-yl)acetamide] | 1660 | > 10000 |
| Cc1ccc(N2CCCN(CC(=O)NC3C4CC5CC(C4)CC3C5)S2(=O)=O)cc1 (centres unmarked) [Compound 24, N-(adamantan-2-yl)-2-(1,1-dioxido-6-(p-tolyl)-1,2,6-thiadiazinan-2-yl)acetamide] | 3370 | > 10000 |
| NC(=O)C12CC3CC(C1)C(NC(=O)CN1CCCN(c4ccc(F)cc4)S1(=O)=O)C(C3)C2 (centres unmarked) [Compound 44, 4-(2-(6-(4-fluorophenyl)-1,1-dioxido-1,2,6-thiadiazinan-2-yl)acetamido)adamantan-1-carboxamide] | 79 | > 10000 |
| NC(=O)C12CC3CC(C1)C(NC(=O)CN1CCCN(c4ccccc4F)S1(=O)=O)C(C3)C2 (centres unmarked) [Compound 59, 4-(2-(6-(2-fluorophenyl)-1,1-dioxido-1,2,6-thiadiazinan-2-yl)-acetamido)adamantan-1-carboxamide] | 14 | > 10000 |
| NC(=O)C12CC3CC(C1)C(NC(=O)CN1CCCN(c4ccccc4)S1(=O)=O)C(C3)C2 (centres unmarked) [Compound 60, 4-(2-(1,1-dioxido-6-phenyl-1,2,6-thiadiazinan-2-yl)acetamido)adamantan-1-carboxamide] | 17 | > 10000 |
| NC(=O)C12CC3CC(C1)C(NC(=O)CN1CCCN(c4cccc(F)c4)S1(=O)=O)C(C3)C2 (centres unmarked) [Compound 69, 4-(2-(6-(3-fluorophenyl)-1,1-dioxido-1,2,6-thiadiazinan-2-yl)acetamido)adamantan-1-carboxamide] | 3 | > 10000 |
| NC(=O)C12CC3CC(C1)C(NC(=O)CN1CCCN(c4c(Cl)cc(Cl)cc4Cl)S1(=O)=O)C(C3)C2 (centres unmarked) [Compound 88, 4-(2-(1,1-dioxido-6-(2,4,6-trichlorophenyl)-1,2,6-thiadiazinan-2-yl)acetamido)adamantan-1-carboxamide] | 0.2 | > 10000 |
| NC(=O)C12CC3CC(C1)C(NC(=O)CN1CCCN(c4c(F)cc(F)cc4F)S1(=O)=O)C(C3)C2 (centres unmarked) [Compound 89, 4-(2-(1,1-dioxido-6-(2,4,6-trifluorophenyl)-1,2,6-thiadiazinan-2-yl)acetamido)adamantan-1-carboxamide] | 20 | > 10000 |
| NC(=O)C12CC3CC(C1)C(NC(=O)CN1CCCCN(c4c(Cl)cc(Cl)cc4Cl)S1(=O)=O)C(C3)C2 (centres unmarked) [Compound 122, 4-(2-(1,1-dioxido-7-(2,4,6-trichlorophenyl)-1,2,7-thiadiazepane-2-yl)acetamido) adamantan-1-carboxamide] | 0.4 | > 10000 |
| CN(CC(=O)NC1C2CC3CC1CC(C(N)=O)(C3)C2)S(=O)(=O)N(C)c1c(Cl)cc(Cl)cc1Cl (centres unmarked) [Compound 123, 4-(2-(methyl(N-methyl-N-(2,4,6-trichlorophenyl)sulfa-moyl)amino)acetamido) adamantan-1-carboxamide] | 0.8 | > 10000 |
| NC(=O)C12CC3CC(C1)C(NC(=O)CN1CCN(c4c(Cl)cc(Cl)cc4Cl)S1(=O)=O)C(C3)C2 (centres unmarked) [Compound 124, 4-(2-(1,1-dioxido-5-(2,4,6-trichlorophenyl)-1,2,5-thiadiazolidin-2-yl)acetamido) adamantan-1-carboxamide] | 187 | > 10000 |
| CC1CCN(c2c(Cl)cc(Cl)cc2Cl)S(=O)(=O)N1CC(=O)NC1C2CC3CC1CC(C(N)=O)(C3)C2 (centres unmarked) [Compound 128, 4-(2-(3-methyl-1,1-dioxido-6-(2,4,6-trichlorophenyl)-1,2,6-thiadiazinan-2-yl)acetamido) adamantan-1-carboxamide] | 0.1 | > 10000 |
| CC1CN(CC(=O)NC2C3CC4CC2CC(C(N)=O)(C4)C3)S(=O)(=O)N(c2c(Cl)cc(Cl)cc2Cl)C1 (centres unmarked) [Compound 156, 4-(2-(4-methyl-1,1-dioxido-6-(2,4,6-trichlorophenyl)-1,2,6-thiadiazinan-2-yl)acetamido)adamantan-1-carboxamide] | 1 | > 10000 |
| NC(=O)[C@]12CC3CC(C1)[C@@H](NC(=O)CN1CC(F)(F)CN(c4c(Cl)cc(Cl)cc4Cl)S1(=O)=O)C(C3)C2 [Compound 172, 4-(2-(4,4-difluoro-1,1-dioxido-6-(2,4,6-trichlorophenyl)-1,2,6-thiadiazinan-2-yl)acetamido)adamantan-1-carboxamide (E form)] | – | > 10000 |
| C=C1CN(CC(=O)NC2C3CC4CC2CC(C(N)=O)(C4)C3)S(=O)(=O)N(c2c(Cl)cc(Cl)cc2Cl)C1 (centres unmarked) [Compound 175, 4-(2-(4-methylene-1,1-dioxido-6-(2,4,6-trichlorophenyl)-1,2,6-thiadiazinan-2-yl)acetamido)adamantan-1-carboxamide] | 14 | > 10000 |
| NC(=O)C12CC3CC(C1)C(NC(=O)CN1CC4(CC4)CN(c4c(Cl)cc(Cl)cc4Cl)S1(=O)=O)C(C3)C2 (centres unmarked) [Compound 176, 4-(2-(6,6-dioxido-7-(2,4,6-trichlorophenyl)-6-thia-5,7-diazaspiro[2,5]octane-5-yl)acetamido)adamantan-1-carboxamide] | 5 | > 10000 |
| CC1(C)CN(CC(=O)NC2C3CC4CC2CC(C(N)=O)(C4)C3)S(=O)(=O)N(c2c(Cl)cc(Cl)cc2Cl)C1 (centres unmarked) [Compound 177, 4-(2-(4,4-dimethyl-1,1-dioxido-6-(2,4,6-trichlorophenyl)-1,2,6-thiadiazinan-2-yl)acetamido)adamantan-1-carboxamide] | 5 | > 10000 |
| CC1CN(CC(=O)NC2C3CC4CC2CC(C(N)=O)(C4)C3)S(=O)(=O)N(c2c(Cl)cc(C(F)(F)F)cc2Cl)C1 (centres unmarked) [Compound 183, (E) 4-(2-(6-(2,6-dichloro-4-(trifluoromethyl)phenyl)-4-methyl-1,1-dioxido-1,2,6-thiadiazinan-2-yl)acetamido)adamantan-1-carboxamide] | 4.8 | > 10000 |
| C[C@H]1CN(CC(=O)NC2C3CC4CC2CC(C(N)=O)(C4)C3)S(=O)(=O)N(c2c(Cl)cc(C(F)(F)F)cc2Cl)C1 (stereo partly drawn) [Compound 195, 4-(2-((S)-6-(2,6-dichloro-4-(trifluoromethyl)phen-yl)-4-methyl-1,1-dioxido-1,2,6-thiadiazinan-2-yl)acetamido)adamantan-1-carboxamide] | – | > 10000 |
| C[C@@H]1CN(CC(=O)NC2C3CC4CC2CC(C(N)=O)(C4)C3)S(=O)(=O)N(c2c(Cl)cc(C(F)(F)F)cc2Cl)C1 (stereo partly drawn) [Compound 196, 4-(2-((R)-6-(2,6-dichloro-4-(trifluoromethyl)phen-yl)-4-methyl-1,1-dioxido-1,2,6-thiadiazinan-2-yl)acetamido)adamantan-1-carboxamide] | 1.3 | > 10000 |
